As usually defined, the Kd is the concentration at which binding is half-saturated. Usually IC50 stands for the concentration that inhibits the measured activity by half.

The target of assay [1] is T1, transthyretin (Homo sapiens, UniProt P02766).
T1 construct: Native tetrameric transthyretin was purified from fractionated human plasma; from tissue; host or cells: human plasma
The experiment in a line: Isothermal titration calorimetry of transthyretin-ligand binding. Particulars: ITC, Tris-NaCl pH 8.0, 2% DMSO, 37° C. On the procedure: 3.3.3 Isothermal titration calorimetry (itc) of transthyretin-mds84 ligand binding: Thermodynamic parameters of transthyretin-mds84 ligand binding were measured directly by isothermal titration calorimetry (VP-ITC, MicroCal LLC, Milton Keynes, UK). An initial injection of 1 μl of mds84 at 0.348 mM was made into transthyretin at a final concentration of 0.029 mM tetramer, followed, at 240 sec intervals, by 35 successive 8 μl injections. The diluent was Tris-NaCl pH 8.0 with 2% (v/v) DMSO. The sample cell was stirred at 310 rpm and cell contents were maintained at 37° C. After correction for volume displacement and plotting against the molar ratio of injected ligand to transthyretin tetramer, integration of the raw thermogram (FIG. 5, upper graph) yielded a binding isotherm (FIG. 5, lower graph) that was best fitted (determined by χ^2 analysis) to a model with a single set of identical sites by non-linear least squares analysis in ORIGIN v7.0 (MicroCal LLC).

For the next assay, the target named is wild type transthyretin (Homo sapiens, UniProt P02766). The assay is described as follows: Displacement of 125I-T4 from transthyretin in whole serum. The settings on record: mean. Type of assay: binding. The source says:
3.2.3.2. Quantitative studies in serum. […] The immunoprecipitate was recovered by centrifugation, washed twice with 0.1 M Tris, 0.1 M NaCl, pH 8.0 and counted.
A general note: Displacement assays read how much labelled ligand stays bound in the presence of the test substance.

For assay [2], the target named is L55P variant transthyretin (Homo sapiens, UniProt P02766, L75P). The assay is described as follows: Inhibition of transthyretin aggregation at acidic pH (turbidity at 400 nm). Type of assay: biochemical. On the procedure: 3.3.2 Inhibition of transthyretin aggregation by 4ajm15: In pilot experiments, transthyretin aggregates were formed from wild type transthyretin (3.6 μM) after incubation at acidic pH for 3 d at 37° C. (Colon and Kelly, 1992). The efficacy of 4ajm15 as an inhibitor of transthyretin aggregate formation was then compared with other transthyretin ligand compounds. […] After 30 min at 37° C., the pH was adjusted to pH 4.4 (with 0.2 M sodium acetate buffer pH 4.0), and the ˜1 ml mixtures were incubated unstirred for 3 d at 37° C.
Using the same method the activities of mds84 and 4ajm15 as inhibitors of the aggregation of both wild type transthyretin and the most aggressively aggregating transthyretin variant, L55P, were evaluated in triplicate with both proteins at 3.6 μM and with one (3.6 μM) or 3 equivalents (10.8 μM) of each ligand. Wild type transthyretin was studied at pH 4.4 and L55P at pH 5.0. […] Mean values and standard deviations are shown in Table 2 and in FIG. 4, where results with 1:1 molar ratio are shown cross hatched and 3:1 molar ratio in open bars.

Assay [3] concerns the target T1, transthyretin. The experiment in a line: Intrinsic fluorescence quenching of transthyretin by ligand titration. Type of assay: binding. Particulars: 1 μM transthyretin, PBS pH 7.4, ligand 0-2 μM, excitation 280 nm, 20° C. As to the method:
3.2.1. Binding of 4ajm15 and mds84 by transthyretin. The interactions between the ligands 4ajm15 or mds84 and transthyretin were studied by monitoring intrinsic fluorescence in the emission range 300-500 nm on excitation at 280 nm using a Perkin Elmer LS55 fluorimeter and a standard 1 cm path length quartz cell at 20° C. Quenching of tryptophan was achieved by titrating 1 μM transthyretin in PBS, pH 7.4 with increasing concentrations of each ligand in the range 0-2 μM (FIG. 2A). […] At the same time the changes in 4ajm15 fluorescence upon binding to the protein were monitored in the emission range 400-600 nm and excitation at 340 nm that is the wavelength specific for 4ajm15 excitation. In these conditions, accumulation of the spectra highlights an isosbestic point at 483 nm (FIG. 2B). The same results were achieved by using mds84 (not shown). The results of the titration of 4ajm15 in presence and absence of transthyretin support a model of binding in which both the binding sites are simultaneously occupied by the palindromic ligand.
In each case increasing concentrations of ligand (0-2 μM) were added to 1 μM protein. The arrow in FIG. 2B indicates the isosbestic point at 483 nm occurring on formation of the protein ligand complex. […] The percent quenching represents ΔF/F0 where F0 is fluorescence intensity prior to the addition of ligands and AF is the decrease in fluorescence at a given ligand concentration.

A further assay concerns the target T2, V30M transthyretin (Homo sapiens, UniProt P02766, V50M).
T2 construct: made in house
The assay is described as follows: Mass spectrometric analysis of ligand dissociation under increasing cone voltage. The class given is binding. Particulars: equimolar 4.4 μM with wild type, 2 fold excess of ligand. From the text: (§1) 4.3. Mass spectrometric analysis of dissociation of 4ajm15 from wild type and amyloidogenic variant transthyretin. ESMS spectra were acquired under increasing cone voltage conditions to induce stepwise dissociation of the ligand from wild type transthyretin and amyloidogenic variants V30M and L55P transthyretin. As the cone voltage increases splitting becomes apparent in the tetramer peaks, corresponding to apo (protein alone) and holo (protein+ligand) transthyretin as ligand begins to dissociate.
The onset of ligand dissociation from V30M transthyretin occurs at the same energy level but the peak height corresponding to apo V30M transthyretin is lower than that for wild type (FIG. 17). Since these two species have very similar amino acid sequences (and therefore similar charging during MS ionisation) they are able to act as internal standards for each other. Therefore a lower peak height for apo V30M compared to apo WT is indicative of a lower proportion of apo V30M than apo WT. At increasing energy levels apo V30M is consistently lower relative to apo WT and as ligand dissociation from WT is complete, a proportion of holo V30M is still present.
V30M transthyretin and [^15N, ^13C] wild type transthyretin in a 2 fold excess of ligand. […]

The target in a further assay is T3, L55P transthyretin (Homo sapiens, UniProt P02766, L75P).
T3 construct: made in house
Described as above. Type of assay: binding. Particulars: equimolar 4.4 μM with wild type, 2 fold excess of ligand.
From the text: as §1
L55P transthyretin and [^15N, ^13C] wild type transthyretin in a 2 fold excess of 4ajm15. […] In spectrum β the onset of 4ajm15 dissociation from wild type tetramer is observed (a) while no ligand dissociation is observed from L55P transthyretin. Dissociation from wild type transthyretin progresses with increasing collisional energy in spectrum γ, but it is not until spectrum δ, where approximately 50% of the wild type is apo, that ligand dissociation from L55P transthyretin is observed (a).

As for `O=C(O)c1ccccc1Nc1cc(Cl)c(OCCCCCCCOc2c(Cl)cc(Nc3ccccc3C(=O)O)cc2Cl)c(Cl)c1` [mds84, 2,2′-(4,4′-(heptane-1,7-diylbis(oxy))bis(3,5-dichloro-4,1-phenylene))bis(azanediyl)dibenzoic acid], at transthyretin [1], the “enthalpy (ΔH)” value was -7.95 kcal/mol. Besides, the Kd at transthyretin [1] (0.029 mM tetramer, read-out: dissociation constant (Kd)) is 0.505 µM. Also, the IC50 on wild type transthyretin came out at 11.9 µM. Besides, the “Aggregation of transthyretin, Mean (1:1)” value in assay [2] (L55P 3.6 μM, ligand 3.6 μM, pH 5.0) is recorded as 17 per cent of control with DMSO alone. In addition, the “Aggregation of transthyretin, Mean (3:1)” value in assay [2] (L55P 3.6 μM, ligand 10.8 μM, pH 5.0) is reported as 9.9 per cent of control with DMSO alone. The “intrinsic fluorescence of transthyretin remaining after titration” value on transthyretin [3] is given as 40%.
For the compound `O=C(O)c1ccccc1Nc1cc(Cl)c(OCCCCCCCCCCCOc2c(Cl)cc(Nc3ccccc3C(=O)O)cc2Cl)c(Cl)c1` [4ajm15, 2,2′-(4,4′-(undecane-1,11-diylbis(oxy))bis(3,5-dichloro-4,1-phenylene))bis(azanediyl)dibenzoic acid], the “peak height of apo V30M transthyretin at onset of dissociation (spectrum β)” value at V30M transthyretin is given as around 45%. At L55P transthyretin, the “dissociation of ligand from L55P transthyretin” value is recorded as “only at higher collisional energy than wild type” and the “proportion of wild type that is apo when dissociation from L55P is first observed (spectrum δ)” value is on record as “approximately 50%”. Also, the concentration for half-maximal inhibition (IC50) on wild type transthyretin came to 27 µM. The “aggregation of L55P in the presence of ligand” value in assay [2] (L55P, pH 5.0, results not shown, in words) is on record as “identical to those with mds84”. Besides, at transthyretin [3], the “intrinsic fluorescence of transthyretin remaining after titration” value amounted to 40%.

Source of the values: patent publication US8236984B2, “Compound and use thereof in the treatment of amyloidosis” (Pentraxin Therapeutics Ltd., priority 2007, dated 2012).
